From paper PMC4117522, “Proteasome Inhibitors Alter Levels of Intracellular Peptides in HEK293T and SH-SY5Y Cells” (PLoS ONE, 2014) come the findings set out here.

Assay [1] has as its target T1, proteasome (beta 5, chymotrypsin-like activity) in HEK293T cell extract (Homo sapiens, UniProt P20618+P28074).
T1 construct: endogenous in cells; host or cells: HEK293T
Briefly: Proteasome activity in HEK293T cell extracts with beta 5-selective substrate Suc-Leu-Leu-Val-Tyr-AMC. The format is biochemical. The procedure: (§1) All enzyme assays described below were performed in the linear range of the assay, as determined from time-course studies. HEK293T cells were lysed by sonication in 50 mM TrisHCl buffer, pH 7.5, containing 40 mM KCl, 5 mM MgCl2, 0.5 mM ATP, and 1 mM DTT (Buffer 1).
To measure proteasome activity, a 1∶50 dilution of the cell extract was pre-incubated with the inhibitor and Buffer 1 for 30 min, followed by addition of 100 µM final concentration of the proteasome substrate succinyl-Leu-Leu-Val-Tyr-7-amino-4-methylcoumarin (Suc-Leu-Leu-Val-Tyr-AMC). After incubation at 37°C for 1 hour, proteasomal activity was quantified by fluorescence measurement of the substrate (380 nm excitation, 460 nm emission).
Figure 2 Inhibition of proteasome activity in HEK293T cells with various proteasome inhibitors. HEK293T cell extract was treated with increasing concentrations of the indicated compound for […] and incubation for 1 hour […]. Enzyme activity was determined by fluorescence measurement of AMC. The resulting activity is expressed as percent enzyme activity relative to the control reaction without inhibitor.

The subject of assay [2] is HEK293T cell aminopeptidase activity (Ala-AMC cleavage). Nature of the assay: Aminopeptidase assay with Ala-AMC in HEK293T cell extracts. Type of assay: biochemical, human. As to conditions: HEK293T cell extract, 10 µM inhibitor. The procedure: as §1
(§2) To measure TPP2, the fluorescent substrate was Ala-Ala-Phe-AMC. Aminopeptidase (AP) assays were performed with Leu-AMC and Ala-AMC, which detect leucine aminopeptidase (LAP), puromycin-sensitive aminopeptidase (PSAP), and other enzymes. To measure the effect of aminopeptidase/proteasome inhibitors on cleavage of Ala-Ala-Phe-AMC and Leu-AMC, 1∶50 dilution of the cell extract was pre-incubated with the inhibitor and Buffer 1 for 30 min, followed by addition of 100 µM final concentration of the respective substrate. For Ala-AMC, the same dilution of the cell extract was pre-incubated with the inhibitor and 50 mM MOPS buffer, pH 7.5, containing 40 mM KCl, 5 mM MgCl2, 0.5 mM ATP, and 1 mM DTT (Buffer 2), followed by addition of 100 µM final concentration of the substrate. After incubation at 37°C for 1 hour, enzyme activity was quantified by fluorescence measurement of the substrate (380 nm excitation, 460 nm emission).
(§3) Figure 7 Effect of aminopeptidase inhibitors on Ala-AMC and Leu-AMC cleavage. HEK 293T cell extract (panels A–D) or recombinant PSAP (panels E–F) were treated with increasing concentrations of bestatin or puromycin for 30 minutes followed by the addition of substrate and incubation for 1 hour. Enzyme activity was determined by fluorescence measurement of AMC and expressed as percentage enzyme activity relative to the control without inhibitor. (A) Bestatin inhibition of HEK293T cell extract assayed with Ala-AMC. (B) Bestatin inhibition of HEK293T cell extract assayed with Leu-AMC. (C) Puromycin inhibition of HEK293T cell extract assayed with Ala-AMC. (D) Puromycin inhibition of HEK293T cell extract assayed with Leu-AMC. (E) Puromycin inhibition of purified PSAP assayed with Ala-AMC. (F) Puromycin inhibition of purified PSAP assayed with Leu-AMC. Error bars show standard error of mean (n = 4), points without error bars had error ranges smaller than the symbol size. Statistical analysis was performed using Student’s t-test: *, p≤0.05; **, p≤0.01; ***, p≤0.001; ns, no significant difference (p>0.05) versus the control.
(§4) Figure 8 Effect of proteasome inhibitors on Ala-AMC and Leu-AMC cleavage. HEK 293T cell extract or recombinant PSAP was treated with 10 µM of each of the proteasome inhibitors for 1 hour in addition to a 30 min pre-incubation without the substrate. Enzyme activity was determined by fluorescence measurement of AMC and expressed as percentage enzyme activity relative to the control without inhibitor. Panels A and B represent the effect of proteasome inhibitors on cleavage of Ala-AMC and Leu-AMC respectively, in HEK293T cell extract. […] Error bars show standard error of mean (n = 4). Statistical analysis was performed using Student’s t-test: *, p≤0.05; **, p≤0.01; ***, p≤0.001; ns, no significant difference (p>0.05) versus the control.

Assay [3] concerns HEK293T cell aminopeptidase activity (Leu-AMC cleavage). Briefly: Aminopeptidase assay with Leu-AMC in HEK293T cell extracts. Type of assay: biochemical, human. The settings on record: HEK293T cell extract, 10 µM inhibitor. The method, then: as §1, §2, §3, §4

On to `CN1C/C(=C/c2ccc(B(O)O)cc2)C(=O)/C(=C\c2ccc(B(O)O)cc2)C1` [AM114, reference compound], for which the “potency relative to clasto-Lactacystin β-lactone (fold less potent)” value in assay [1] (Suc-Leu-Leu-Val-Tyr-AMC) was “approximately 10 fold”. Also, the “inhibition of proteasome activity at the highest concentration tested” value in assay [1] (highest concentration tested) is reported as not above 35%. The “effect on cleavage of Ala-AMC” value in assay [2] is recorded as “without effect”. Further, in assay [3], the “effect on cleavage of Leu-AMC” value is given as “without effect”.
